{"source": "patent US11612652B2", "about": "“Lipids as synthetic vectors to enhance antigen processing and presentation ex-vivo in dendritic cell therapy” (PDS Biotechnology Corporation, priority 2015, dated 2023)", "key": {"THP-1 cells": {"test_system": "THP-1 cells", "assay": "DQ-OVA uptake in human monocyte cell line, confocal microscopy and flow cytometry", "type": "cell-based", "details": "DQ-OVA 10 μg/ml, R-DOTAP 25 μg/ml, 1 h at 37° C.", "method": "To determine the effect of cationic lipids on human cells, a human monocyte cell line, THP-1 was used to assess DQ-OVA uptake ex-vivo. THP-1 is representative of human blood derived monocyte cells, the same cells that are used to produce DC from patients in ex vivo DC therapy approaches. THP-1 cells were incubated with DQ-OVA (10 μg/ml) in the presence (A, B) or absence (C, D) of R-DOTAP (25 μg/ml) for 1 h at 37° C. The same cell was imaged using a laser scanning confocal microscope and quantitated by measuring green versus red fluorescence by flow cytometry. […] Another striking observation from FIGS. 6A and B, is the accumulation of processed OVA in endocytic vesicles. It is well known that proteins in endocytic vesicles are efficiently incorporated into MHC class II molecules for stimulating CD4 T cells or shuttled into the cross-presentation pathway for presentation on MHC class I to CD8 T cells. Thus, cationic lipids facilitate protein uptake in a manner which maximally optimizes presentation of antigen onto both MHC class I and class II molecules, resulting in maximal stimulation of CD8 and CD4 T cells respectively."}, "TC1 epithelial cells": {"test_system": "TC1 epithelial cells", "assay": "DQ-OVA uptake and processing by epithelial cell line", "type": "cell-based, mouse", "details": "identical conditions as the BMDC", "method": "(§1) This uptake and processing was inhibited at 4° C. confirming that active cytoskeletal rearrangements are required for this type of uptake. […] The effect of R-DOTAP was concentration dependent with 50 uM showing the greatest effect. To determine if the R-DOTAP enhancement of protein uptake is cell dependent, a mouse epithelial cell line was incubated with DQ-OVA under identical conditions as the BMDC. […] Further, they indicate that this enhancement is selective for dendritic cells and not other, non-antigen presenting cell types."}, "[1]": {"test_system": "BMDC (CD11c positive cells)", "assay": "DQ-OVA uptake and processing by BMDC, flow cytometry", "type": "cell-based, mouse", "method": "In order to determine the effects of cationic lipids on antigen uptake and processing by dendritic cells ex-vivo, a fluorescent ovalbumin protein called DQ-OVA was used. DQ-OVA is non-fluorescent when intact, but emits both red and green fluorescence when the protein is degraded. BMDC were incubated at 37° C. or 4° C. for 1 hr with DQ-OVA alone, or DQ-OVA mixed with different concentrations of the cationic lipid DOTAP. The cells were then washed, fixed, and stained with fluorescent antibodies to CD11c, a marker for dendritic cells. Cells were then analyzed on an LSRII flow cytometer in both red and green fluorescent channels.\nThis represents the well-known mannose receptor mediated uptake of OVA by DC. […] Graphical representation of the fluorescent uptake of DQ-OVA into BMDC measured by flow cytometry.\nas §1\nIn order to determine whether lipid adjuvants could mediate the same effect as R-DOTAP, BMDC were incubated with DQ-OVA in media alone or with R-DOTAP as described for FIG. 1. In addition, BMDC were incubated under identical conditions with the potent lipid adjuvant lipopolysaccharide (LPS). Mouse bone marrow DC were incubated in the presence of fluorescent DQ-OVA for one hour at either 37° C. or 4° C./azide in the presence of 25 μM DOTAP nanoparticles, 10 μg/ml LPS or media alone, and analyzed by flow cytometry. […] Monophorphoryl lipid-A (MPL) is a lower toxicity derivative of LPS that is now an FDA approved adjuvant in several vaccines."}, "[2]": {"test_system": "HPV16-specific CD8+ T-cells", "assay": "IFN-gamma ELISPOT of splenocytes after vaccination with KF18 HPV peptide formulations", "type": "in vivo, C57 black mice", "details": "vaccinated Day 0 and Day 7, sacrificed Day 14", "method": "C57 black mice were vaccinated with various formulations: […]\nGroup 1: KF18 HPV peptide ([…]) (SEQ ID NO: 4)\nGroup 2: KF18 HPV peptide+R-DOTAP liposomes\nGroup 3: KF18 HPV peptide+S-DOTAP liposomes\nGroup 4: KF18 peptide+MPL/Alum adjuvant\n5 mice per group were injected with the various formulations. The mice were vaccinated on Day 0 and Day 7 and sacrificed on Day 14. The splenocytes were removed and ELISPOT studies performed. The splenocytes were stimulated with the peptide […] (RF9) (SEQ ID NO: 5), the HPV16 CD8+ T-cell epitope peptide recognized by the C57 mice. […] An additional example of this effect is observed with the cationic lipid DDA. […] However, it has been reported that in order to induce strong antigen-specific T-cell responses that DDA is used in combination with strong adjuvants (Brandt L. et al, ESAT-6 Subunit Vaccination against Mycobacterium tuberculosis, Infect Immun. 2000 February; 68(2): 791-795)."}, "[3]": {"test_system": "mouse bone marrow derived dendritic cells (BMDCs)", "assay": "Alexa Fluor 647-OVA uptake by BMDCs, flow cytometry", "type": "cell-based", "details": "50 μM cationic lipid, 20 μg/ml Alexa Fluor 647-OVA, 37° C., 10-60 minutes, versus 280 mM sucrose diluent", "method": "In order to determine the effect of cationic lipids on the uptake of protein antigen, mouse bone marrow derived dendritic cells (BMDCs) were pulsed with Alexa Fluor®647-OVA conjugate and quantified ovalbumin uptake by BMDCs using flow cytometry. Briefly, 2×10^6 cells/ml BMDCs were incubated at 37° C. for 10-60 minutes in serum free RPMI 1640 cell culture media containing 20 μg/ml ovalbumin (Ovalbumin Alexa Fluor® 647 conjugate; life technologies, cat #034784) and 50 μM cationic lipid (RDOTAP) or 280 mM sucrose diluent. Cells were washed after pulsing to remove non-cell associated ovalbumin and fixed with 1% formaldehyde for flow cytometer analysis. The ovalbumin uptake was quantified using BD LSR II flow cytometer."}}}
{"smiles": "CCCCCCCC/C=C\\CCCCCCCC(=O)OCC(C[N+](C)(C)C)OC(=O)CCCCCCC/C=C\\CCCCCCCC", "note": "(centres unmarked) [R-DOTAP, 1,2-dioleoyl-3-trimethylammonium propane]", "values": [{"measurement": "DQ-OVA uptake in THP-1 cells", "setting": "THP-1 cells", "value": "dramatically enhanced the uptake of DQ-OVA in THP-1 cells"}, {"measurement": "DQ-OVA uptake and processing in TC1 epithelial cells", "setting": "TC1 epithelial cells", "value": "only observed in DC and not in TC1 epithelial cells"}, {"measurement": "DQ-OVA uptake at 4° C.", "setting": "[1]; 4° C., 1 hr", "value": "Significant uptake was even seen at 4 °C"}, {"measurement": "DQ-OVA uptake and processing, mean green fluorescence of CD11c positive cells", "setting": "[1]; 37° C., 1 hr, versus DQ-OVA alone", "value": "doubling of fluorescence"}, {"measurement": "concentration showing the greatest effect on DQ-OVA uptake", "setting": "[1]; concentration dependent effect", "value": 50, "unit": "µM"}, {"measurement": "enhancement of DQ-OVA uptake and processing compared with known adjuvants (red fluorescence)", "setting": "[1]; one hour, 25 μM DOTAP nanoparticles, 10 μg/ml LPS or media alone", "value": "greatly enhanced"}, {"measurement": "HPV-specific CD8+ T-cell response (ELISPOT, RF9 stimulation)", "setting": "[2]", "value": "effective in inducing strong HPV-specific CD8+ T-cell responses"}, {"measurement": "ovalbumin (protein) uptake by BMDC, fluorescence intensity", "setting": "[3]", "value": "significantly increased the protein uptake by BMDC at all time points measured"}]}
